Data reported in patent US20240158446A1, “CYCLIC COMPOUND HAVING SELECTIVE INHIBITORY ACTION ON KRAS OVER HRAS AND NRAS” (CHUGAI SEIYAKU KABUSHIKI KAISHA, priority 2021, published 2024).
Like-named read-outs stand apart in the source and are kept apart here.

Assays:
[1] = molecular target: GDP-bound NRAS wild-type protein (Homo sapiens, UniProt P01111); experiment: Binding to NRAS by surface plasmon resonance (SPR), Single Cycle Kinetics; conditions: SPR; for NRAS/KRAS (ratio of KD value for NRAS to KD value for KRAS): GDP-bound NRAS wild-type protein vs GDP-bound KRAS wild-type protein
[2] = molecular target: GDP-bound HRAS wild-type protein (Homo sapiens, UniProt P01112); experiment: Binding to HRAS by surface plasmon resonance (SPR), Single Cycle Kinetics; conditions: SPR; for HRAS/KRAS (ratio of KD value for HRAS to KD value for KRAS): GDP-bound HRAS wild-type protein vs GDP-bound KRAS wild-type protein
[3] = tested on: human lung cancer strain NCI-H441; conditions: read-out: NCI-H441 cell proliferation inhibitory activity, 50% proliferation inhibitory concentration (IC50 value); NCI-H441, four days, CellTiter-Glo;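 note: cell proliferation inhibition after four days measured by CellTiter-Glo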
[4] = molecular target: GDP-bound KRAS wild-type protein (Homo sapiens, UniProt P01116); experiment: Binding to KRAS by surface plasmon resonance (SPR), Single Cycle Kinetics; conditions: SPR, Single Cycle Kinetics
[5] = 1:1 binding model, read-out: KD value with respect to GDP-bound KRAS wild-type protein
[6] = GDP-bound KRAS wild-type protein, read-out: KRAS KD

GDP-bound KRAS wild-type protein, sequence (P01116 whole entry): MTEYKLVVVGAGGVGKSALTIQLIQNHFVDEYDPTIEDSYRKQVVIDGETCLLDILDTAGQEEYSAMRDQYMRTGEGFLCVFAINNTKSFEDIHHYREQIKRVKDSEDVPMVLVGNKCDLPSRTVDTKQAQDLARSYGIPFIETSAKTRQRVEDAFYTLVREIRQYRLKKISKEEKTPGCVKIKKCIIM
GDP-bound HRAS wild-type protein, sequence (P01112 whole entry): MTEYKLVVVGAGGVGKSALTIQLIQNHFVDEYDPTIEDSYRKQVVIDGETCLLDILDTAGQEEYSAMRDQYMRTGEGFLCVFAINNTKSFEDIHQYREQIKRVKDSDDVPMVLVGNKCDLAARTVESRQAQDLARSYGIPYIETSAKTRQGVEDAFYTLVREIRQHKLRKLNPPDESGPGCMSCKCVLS
GDP-bound NRAS wild-type protein, sequence (P01111 whole entry): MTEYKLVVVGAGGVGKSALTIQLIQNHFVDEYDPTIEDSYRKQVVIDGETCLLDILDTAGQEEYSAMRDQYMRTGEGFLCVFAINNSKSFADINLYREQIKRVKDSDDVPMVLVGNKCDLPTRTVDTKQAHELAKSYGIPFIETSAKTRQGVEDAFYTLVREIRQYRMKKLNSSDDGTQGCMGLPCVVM

| IC50 [3] | Kd [4, 5] | Kd [4, 6] | SMILES | NRAS/KRAS (ratio of KD value for NRAS to KD value for KRAS) [1] | ratio of the KD value with respect to GDP-bound NRAS wild-type protein to the KD value with respect to KRAS [1] | HRAS/KRAS (ratio of KD value for HRAS to KD value for KRAS) [2] | ratio of the KD value with respect to GDP-bound HRAS wild-type protein to the KD value with respect to KRAS [2] |
| --- | --- | --- | --- | --- | --- | --- | --- |
| 2.5 nM | 0.06 nM | 0.06 nM | CCC[C@H]1C(=O)N[C@@H]([C@@H](C)CC)C(=O)N(C)CC(=O)N(C)[C@H]2C/C=C\CCN(C2=O)[C@@H](Cc2ccc(C(F)(F)F)cc2)C(=O)N(C)CC(=O)N[C@@H](CCc2ccc(C(F)(F)F)c(OC)c2)C(=O)N2C[C@H](OCC)C[C@H]2C(=O)N(C)C2(CCC2)C(=O)N(C)[C@@H](C2CCCC2)C(=O)N(C)[C@H](C(=O)N2CCCC2)CC(=O)N1C [PP3105, (2S,8S,12R,14S,20S,23S,27S,30S,36S,38Z)-20-cyclopentyl-12-ethoxy-8-[2-[3-methoxy-4-(trifluoromethyl)phenyl]ethyl]-4,16,19,22,26,32,35-heptamethyl-30-[(1S)-1-methylpropyl]-27-propyl-23-(pyrrolidine-1-carbonyl)-2-[[4-(trifluoromethyl)phenyl]methyl]spiro[1,4,7,10,16,19,22,26,29,32,35-undecazatricyclo[34.5.1.0^10,14]dotetracont-38-ene-17,1′-cyclobutane]-3,6,9,15,18,21,25,28,31,34,42-undecone] | AA (a compound having 20 or more is denoted as AA) | AA (a compound having 20 or more is denoted as AA) | A (a compound having 10 or more and less than 20 is denoted as A) | A (a compound having 10 or more and less than 20 is denoted as A) |
| 2.9 nM | 0.048 nM | 0.048 nM | CCC[C@H]1C(=O)N[C@@H]([C@@H](C)CC)C(=O)N(C)CC(=O)N(C)[C@H]2C/C=C\CCN(C2=O)[C@@H](Cc2ccc(C)cc2)C(=O)N(C)CC(=O)N[C@@H](CCc2ccc(C(F)(F)F)c(OC)c2)C(=O)N2C[C@H](OCC)C[C@H]2C(=O)N(C)C2(CCC2)C(=O)N(C)[C@@H](C2CCCC2)C(=O)N(C)[C@H](C(=O)N2CCCC2)CC(=O)N1C [PP3106, (2S,8S,12R,14S,20S,23S,27S,30S,36S,38Z)-20-cyclopentyl-12-ethoxy-8-[2-[3-methoxy-4-(trifluoromethyl)phenyl]ethyl]-4,16,19,22,26,32,35-heptamethyl-30-[(1S)-1-methylpropyl]-27-propyl-2-(p-tolylmethyl)-23-(pyrrolidine-1-carbonyl)spiro[1,4,7,10,16,19,22,26,29,32,35-undecazatricyclo[34.5.1.0^10,14]dotetracont-38-ene-17,1′-cyclobutane]-3,6,9,15,18,21,25,28,31,34,42-undecone] | A (a compound having 10 or more and less than 20 is denoted as A) | A (a compound having 10 or more and less than 20 is denoted as A) | A (a compound having 10 or more and less than 20 is denoted as A) | A (a compound having 10 or more and less than 20 is denoted as A) |
| 9250 nM | 870 nM | 870 nM | CC[C@H](C)[C@@H]1NC(=O)[C@H](CC(C)C)N(C)C(=O)CSC[C@H](C(=O)N(C)C)N(C)C(=O)[C@H](C2CCCC2)N(C)C(=O)C2(CCCC2)NC(=O)[C@@H]2CCCN2C(=O)[C@@H](CCc2cc(F)c(C(F)(F)F)c(F)c2)NC(=O)CN(C)C(=O)[C@H](Cc2ccc(C(F)(F)F)cc2)N2CC=CC[C@@H](C2=O)N(C)C(=O)CN(C)C1=O [PP3108] | C (A compound having a KD ratio of 0.1 or more and less than 3 is denoted as C) | C (A compound having a KD ratio of 0.1 or more and less than 3 is denoted as C) | B (a compound having 3 or more and less than 10 is denoted as B) | B (a compound having 3 or more and less than 10 is denoted as B) |
| 32.4 nM | 3.1 nM | 3.1 nM | CCC[C@H]1C(=O)N[C@@H]([C@@H](C)CC)C(=O)N(C2CC2)CC(=O)N(C)[C@H]2C/C=C\CCN(C2=O)[C@@H](Cc2ccc(C(F)(F)F)cc2)C(=O)N(C)CC(=O)N[C@@H](CCc2cc(F)c(C(F)(F)F)c(F)c2)C(=O)N2C[C@H](OCC)C[C@H]2C(=O)N(C)C2(CCC2)C(=O)N(C)[C@@H](C2CCCC2)C(=O)N(C)[C@H](C(=O)N2CCCC2)CC(=O)N1C [PP3112] | A (a compound having 10 or more and less than 20 is denoted as A) | A (a compound having 10 or more and less than 20 is denoted as A) | B (a compound having 3 or more and less than 10 is denoted as B) | B (a compound having 3 or more and less than 10 is denoted as B) |
| 6.1 nM | 0.17 nM | 0.17 nM | CCC[C@H]1C(=O)N[C@@H]([C@@H](C)CC)C(=O)N(C2CC2)CC(=O)N(C)[C@H]2C/C=C\CCN(C2=O)[C@@H](Cc2ccc(C)cc2)C(=O)N(C)CC(=O)N[C@@H](CCc2cc(F)c(C(F)(F)F)c(F)c2)C(=O)N2C[C@H](OCC)C[C@H]2C(=O)N(C)C2(CCC2)C(=O)N(C)[C@@H](C2CCCC2)C(=O)N(C)[C@H](C(=O)N2CCCC2)CC(=O)N1C [PP3113, (2S,8S,12R,14S,20S,23S,27S,30S,36S,38Z)-20-cyclopentyl-32-cyclopropyl-8-[2-[3,5-difluoro-4-(trifluoromethyl)phenyl]ethyl]-12-ethoxy-4,16,19,22,26,35-hexamethyl-30-[(1S)-1-methylpropyl]-27-propyl-2-(p-tolylmethyl)-23-(pyrrolidine-1-carbonyl)spiro[1,4,7,10,16,19,22,26,29,32,35-undecazatricyclo[34.5.1.0^10,14]dotetracont-38-ene-17,1′-cyclobutane]-3,6,9,15,18,21,25,28,31,34,42-undecone] | A (a compound having 10 or more and less than 20 is denoted as A) | A (a compound having 10 or more and less than 20 is denoted as A) | A (a compound having 10 or more and less than 20 is denoted as A) | A (a compound having 10 or more and less than 20 is denoted as A) |

| SMILES | IC50 [3] | Kd [4, 5] | Kd [4, 6] | NRAS/KRAS (ratio of KD value for NRAS to KD value for KRAS) [1] | ratio of the KD value with respect to GDP-bound NRAS wild-type protein to the KD value with respect to KRAS [1] | HRAS/KRAS (ratio of KD value for HRAS to KD value for KRAS) [2] | ratio of the KD value with respect to GDP-bound HRAS wild-type protein to the KD value with respect to KRAS [2] |
| --- | --- | --- | --- | --- | --- | --- | --- |
| CCC[C@H]1C(=O)N[C@@H]([C@@H](C)CC)C(=O)N(C2CC2)CC(=O)N(C)[C@H]2C/C=C\CCN(C2=O)[C@@H](Cc2ccc(C(F)(F)F)cc2)C(=O)N(C)CC(=O)N[C@@H](CCc2cc(F)c(C(F)(F)F)c(F)c2)C(=O)N2C[C@H](OCC)C[C@H]2C(=O)N(C)C2(CCC2)C(=O)N(C)[C@@H](C2CCCC2)C(=O)N(C)[C@H](C(=O)N2CCCCC2)CC(=O)N1C [PP3110] | 69.9 nM | 4.3 nM | 4.3 nM | A (a compound having 10 or more and less than 20 is denoted as A) | A (a compound having 10 or more and less than 20 is denoted as A) | A (a compound having 10 or more and less than 20 is denoted as A) | A (a compound having 10 or more and less than 20 is denoted as A) |
| CCC[C@H]1C(=O)N[C@@H]([C@@H](C)CC)C(=O)N2CCC[C@H]2C(=O)N(C)[C@H]2C/C=C\CCN(C2=O)[C@@H](Cc2ccc(C(F)(F)F)cc2)C(=O)N(C)CC(=O)N[C@@H](CCc2cc(F)c(C(F)(F)F)c(F)c2)C(=O)N2C[C@H](OCC)C[C@H]2C(=O)N(C)C2(CCC2)C(=O)N(C)[C@@H](C2CCCC2)C(=O)N(C)[C@H](C(=O)N2CCCCC2)CC(=O)N1C [PP3114] | 14.7 nM | 4.5 nM | 4.5 nM | AA (a compound having 20 or more is denoted as AA) | AA (a compound having 20 or more is denoted as AA) | A (a compound having 10 or more and less than 20 is denoted as A) | A (a compound having 10 or more and less than 20 is denoted as A) |
| CCC[C@H]1C(=O)N[C@@H]([C@@H](C)CC)C(=O)N2CCC[C@H]2C(=O)N(C)[C@H]2C/C=C\CCN(C2=O)[C@@H](Cc2ccc(C)cc2)C(=O)N(C)CC(=O)N[C@@H](CCc2cc(F)c(C(F)(F)F)c(F)c2)C(=O)N2C[C@H](OCC)C[C@H]2C(=O)N(C)C2(CCC2)C(=O)N(C)[C@@H](C2CCCC2)C(=O)N(C)[C@H](C(=O)N2CCCCC2)CC(=O)N1C [PP3115, (1S,4S,10S,13S,17S,20S,26S,28R,32S,38S,42Z)-20-cyclopentyl-32-[2-[3,5-difluoro-4-(trifluoromethyl)phenyl]ethyl]-28-ethoxy-2,14,18,21,24,36-hexamethyl-10-[(1S)-1-methylpropyl]-17-(piperidine-1-carbonyl)-13-propyl-38-(p-tolylmethyl)spiro[2,8,11,14,18,21,24,30,33,36,39-undecazatetracyclo[37.5.1.0^4,8.0^26,30]pentatetracont-42-ene-23,1′-cyclobutane]-3,9,12,15,19,22,25,31,34,37,45-undecone] | 5.7 nM | 2.6 nM | 2.6 nM | A (a compound having 10 or more and less than 20 is denoted as A) | A (a compound having 10 or more and less than 20 is denoted as A) | B (a compound having 3 or more and less than 10 is denoted as B) | B (a compound having 3 or more and less than 10 is denoted as B) |
